Reference: patent US20250339399A1, “SUPRAMOLECULAR SELF-ASSEMBLY SYSTEM” (Beijing Creatron Institute of Pharmaceutical Research Co., …, priority 2022, published 2025)
Counter-ions that a name gives are not always drawn. Like-named read-outs stand apart in the source and are kept apart here.

Tests used:
[1] = Guest molecule concentration after incubation in initial medium without polymer (Comparative Example 1); assay type: physicochemical; details: 37° C., pH 6.8 phosphate buffer
Outline: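 Dissolved guest content measured by HPLC of centrifuged supernatants (37° C., 13000 rpm, 5 min) sampled at 0.5 h, 3 h and 6 h. Incubation was polymer-free at 37° C.±0.5° C. in buffers of pH 2.0-7.4; nominal loading was set by maximum clinical dose.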

[2] = Binary supramolecular self-assembly systems of polymer and target: guest concentration over incubation time (Comparative Example 2); assay type: physicochemical; details: for Concentration of guest molecule in solution / Times that of the initial medium: 6 h
Protocol: Experiments were conducted according to the steps in Comparative Example 1, and quantitative analysis was carried out using the analytical method for each target to investigate the regulation ability […] stacking.

[3] = cited from earlier work
[4] = cited from earlier work; remark: listed apart in the source
[5] = human use, cited from earlier work
[6] = natural flavonoids (chalcone, dihydrochalcone class), Table 1 basic information

With `O=C1C[C@@H](c2ccc(O)cc2)Oc2cc(O)cc(O)c21` [Naringenin] the “Concentration of guest molecule measured after different incubated time” value (shortened to “Concentration … after different incubated time”) ([1]; 0.5 h) was 169.9 µg/mL, the “Concentration … after different incubated time” value ([1]; 3 h) was 126.7 µg/mL and the “Concentration … after different incubated time” value ([1]; 6 h) was 129.1 µg/mL. The “Concentration of the target in the solution measured after different incubation time” value (from here on “Concentration … after different incubation time”) ([2]; binary system with 0.5% polymer 101, incubation 0.5 h) was 412.1 µg/mL, the “Concentration … after different incubation time” value ([2]; binary system with 0.5% polymer 101, incubation 3 h) was 214.9 µg/mL and the “Concentration … after different incubation time” value ([2]; binary system with 0.5% polymer 101, incubation 6 h) was 126.4 µg/mL. The “Concentration … after different incubation time” value ([2]; binary system with 0.5% polymer 102, incubation 0.5 h) was 456.4 µg/mL, the “Concentration … after different incubation time” value ([2]; binary system with 0.5% polymer 102, incubation 3 h) was 389.1 µg/mL and the “Concentration … after different incubation time” value ([2]; binary system with 0.5% polymer 102, incubation 6 h) was 383.3 µg/mL. The “Concentration … after different incubation time” value ([2]; binary system with 0.5% polymer 103, incubation 0.5 h) was 230.7 µg/mL, the “Concentration … after different incubation time” value ([2]; binary system with 0.5% polymer 103, incubation 3 h) was 231.0 µg/mL and the “Concentration … after different incubation time” value ([2]; binary system with 0.5% polymer 103, incubation 6 h) was 233.5 µg/mL. The “Concentration … after different incubation time” value ([2]; binary system with 0.5% polymer 106, incubation 0.5 h) was 469.5 µg/mL, the “Concentration … after different incubation time” value ([2]; binary system with 0.5% polymer 106, incubation 3 h) was 462.5 µg/mL and the “Concentration … after different incubation time” value ([2]; binary system with 0.5% polymer 106, incubation 6 h) was 478.8 µg/mL. The “Concentration … after different incubation time” value ([2]; binary system with 0.5% polymer 107, incubation 0.5 h) was 127.5 µg/mL, the “Concentration … after different incubation time” value ([2]; binary system with 0.5% polymer 107, incubation 3 h) was 130.9 µg/mL and the “Concentration … after different incubation time” value ([2]; binary system with 0.5% polymer 107, incubation 6 h) was 139.1 µg/mL. For the same compound, the “Concentration … after different incubation time” value ([2]; binary system with 0.5% polymer 110, incubation 0.5 h) was 112.7 µg/mL, the “Concentration … after different incubation time” value ([2]; binary system with 0.5% polymer 110, incubation 3 h) was 79.0 µg/mL and the “Concentration … after different incubation time” value ([2]; binary system with 0.5% polymer 110, incubation 6 h) was 77.6 µg/mL. For the same compound, the “Concentration of guest molecule in solution” value ([2]; binary: 0.5% 102H) was 383.3 µg/mL, the “Times that of the initial medium” value ([2]; binary: 0.5% 102H) was 3.0 times and the “Concentration of guest molecule in solution” value ([2]; binary: 0.5% 103E5) was 233.5 µg/mL. The “Times that of the initial medium” value ([2]; binary: 0.5% 103E5) was 1.8 times, the “solubility value given in Table 1 (basic information of natural flavonoids)” value ([3]; parent flavonoid of the class, value follows the class name) was “Naringenin (CAS 480-41) derivatives, EUF-0.58 mg/ml” and the LogP [4] was “LogP 2.71”.

For `C=C1C[C@@]23CC[C@H]4[C@@](C)(CCC[C@@]4(C)C(=O)O[C@@H]4O[C@H](CO)[C@@H](O)[C@H](O)[C@H]4O)[C@@H]2CC[C@]1(O[C@@H]1O[C@H](CO)[C@@H](O)[C@H](O)[C@H]1O[C@@H]1O[C@H](CO)[C@@H](O)[C@H](O)[C@H]1O)C3` [Stevioside], the Intrinsic solubility [3] is given as “Intrinsic solubility: 6.7 mg/ml”.

In the case of `CC(=O)O[C@H]1[C@H](Oc2cc(O)c(C(=O)CCc3ccc(O)cc3)c(O)c2)O[C@H](CO)[C@@H](O)[C@@H]1O` [Trilobatin 2″-acetate, [(2S,3R,4S,5S,6R)-(R)-2-[3,5-dihydroxy-4-[3-(4-hydroxyphenyl)propionyl]phenoxy]-4,5-dihydroxy-6-(hydroxymethyl)oxy-3-yl]acetate], the LogP [3, 6] is listed as 2.07 and the Sol [3, 6] is listed as 2.08 mg/mL.

In the case of `O=C(CCc1ccc(O)cc1)c1c(O)cc(O[C@@H]2O[C@H](CO)[C@@H](O)[C@H](O)[C@H]2O)cc1O` [Trilobatin, trilobatin], the Sol [3, 6] is given as 3.89 mg/mL.

For `O=C(O[C@@H]1Cc2c(O)cc(O)cc2O[C@@H]1c1cc(O)c(O)c(O)c1)c1cc(O)c(O)c(O)c1` [compound 303, (−)−Epigallocatechin 3-gallate], the “Acceptable daily intake (ADI)” value [5] is given as 135-270 mg/person/ day mg/person/day.

For `C=C1C[C@@]23CC[C@H]4[C@@](C)(CCC[C@@]4(C)C(=O)O)[C@@H]2CC[C@]1(O[C@@H]1O[C@H](CO)[C@@H](O)[C@H](O[C@@H]2O[C@H](CO)[C@@H](O)[C@H](O)[C@H]2O)[C@H]1O[C@@H]1O[C@H](CO)[C@@H](O)[C@H](O)[C@H]1O)C3` [compound 307, Rebaudioside B], the “Acceptable daily intake (ADI)” value ([5]; bw: body weight) is listed as 6 mg/kg bw/day.

For `C=C1C[C@@]23CC[C@H]4[C@@](C)(CCC[C@@]4(C)C(=O)O[C@@H]4O[C@H](CO)[C@@H](O)[C@H](O)[C@H]4O)[C@@H]2CC[C@]1(O[C@@H]1O[C@H](CO)[C@@H](O)[C@H](O[C@@H]2O[C@H](CO)[C@@H](O)[C@H](O)[C@H]2O)[C@H]1O[C@@H]1O[C@@H](C)[C@H](O)[C@@H](O)[C@H]1O)C3` [compound 308, Rebaudioside C], the “Acceptable daily intake (ADI)” value ([5]; bw: body weight) is given as 6 mg/kg bw/day.

For `C[C@@H]1O[C@@H](O[C@H]2[C@H](Oc3cc(O)c(C(=O)CCc4ccc(O)cc4)c(O)c3)O[C@H](CO)[C@@H](O)[C@@H]2O)[C@H](O)[C@H](O)[C@H]1O` [compound 312, Naringin dihydrochalcone], the “Acceptable daily intake (ADI)” value [5] is listed as 41 mg/person/ day mg/person/day.

In the case of `CC1(C)[C@@H](O[C@H]2O[C@H](C(=O)O)[C@@H](O)[C@H](O)[C@H]2O[C@@H]2O[C@H](C(=O)O)[C@@H](O)[C@H](O)[C@H]2O)CC[C@]2(C)[C@H]3C(=O)C=C4[C@@H]5C[C@@](C)(C(=O)O)CC[C@]5(C)CC[C@@]4(C)[C@]3(C)CC[C@@H]12` [compound 314, Glycyrrhizic acid and its ammonium salt], the “Acceptable daily intake (ADI)” value ([5]; bw: body weight) is given as 2 mg/kg bw/day.

In the case of `C=C1C[C@@]23CC[C@H]4[C@@](C)(CCC[C@@]4(C)C(=O)O[C@@H]4O[C@H](CO)[C@@H](O)[C@H](O)[C@H]4O)[C@@H]2CC[C@]1(O[C@@H]1O[C@H](CO)[C@@H](O)[C@H](O)[C@H]1O[C@@H]1O[C@H](CO)[C@@H](O)[C@H](O)[C@H]1O)C3` [compound 315, Stevioside], the “Acceptable daily intake (ADI)” value ([5]; bw: body weight) is given as 4 mg/kg bw/day.

In the case of `O=C(OC[C@H]1O[C@@H](OC(=O)c2cc(O)c(O)c(OC(=O)c3cc(O)c(O)c(O)c3)c2)[C@H](OC(=O)c2cc(O)c(O)c(OC(=O)c3cc(O)c(O)c(O)c3)c2)[C@@H](OC(=O)c2cc(O)c(O)c(OC(=O)c3cc(O)c(O)c(O)c3)c2)[C@@H]1OC(=O)c1cc(O)c(O)c(OC(=O)c2cc(O)c(O)c(O)c2)c1)c1cc(O)c(O)c(OC(=O)c2cc(O)c(O)c(O)c2)c1` [compound 316, Tannic acid], the “Acceptable daily intake (ADI)” value ([5]; bw: body weight) is listed as 15 mg/kg bw/day.

In the case of `COc1ccc([C@@H]2CC(=O)c3c(O)cc(O[C@@H]4O[C@H](CO)[C@@H](O)[C@H](O)[C@H]4O[C@@H]4O[C@@H](C)[C@H](O)[C@@H](O)[C@H]4O)cc3O2)cc1O` [compound 318, Neohesperidin], the “Acceptable daily intake (ADI)” value ([5]; bw: body weight) is listed as 5 mg/kg bw/day.

In the case of `C[C@H](CC[C@@H](O[C@@H]1O[C@H](CO[C@@H]2O[C@H](CO)[C@@H](O)[C@H](O)[C@H]2O)[C@@H](O)[C@H](O)[C@H]1O[C@@H]1O[C@H](CO)[C@@H](O)[C@H](O)[C@H]1O)C(C)(C)O)[C@H]1CC[C@@]2(C)[C@@H]3CC=C4[C@@H](CC[C@H](O[C@@H]5O[C@H](CO[C@@H]6O[C@H](CO)[C@@H](O)[C@H](O)[C@H]6O)[C@@H](O)[C@H](O)[C@H]5O)C4(C)C)[C@]3(C)[C@H](O)C[C@]12C` [compound 319, Mogroside V], the “Acceptable daily intake (ADI)” value ([5]; bw: body weight) is given as 0-2.5 mg/kg bw/day.

In the case of `C=C1C[C@@]23CC[C@H]4[C@@](C)(CCC[C@@]4(C)C(=O)O[C@@H]4O[C@H](CO)[C@@H](O)[C@H](O)[C@H]4O[C@@H]4O[C@H](CO)[C@@H](O)[C@H](O)[C@H]4O)[C@@H]2CC[C@]1(O[C@@H]1O[C@H](CO)[C@@H](O)[C@H](O[C@@H]2O[C@H](CO)[C@@H](O)[C@H](O)[C@H]2O)[C@H]1OC1O[C@H](CO)[C@@H](O)[C@H](O)[C@H]1O)C3` (stereo partly drawn) [compound 320, Rebaudioside D], the “Acceptable daily intake (ADI)” value ([5]; bw: body weight) is listed as 3-5 mg/kg bw/day.

In the case of `C=C1C[C@@]23CC[C@H]4[C@@](C)(CCC[C@@]4(C)C(=O)O[C@@H]4O[C@H](CO)[C@@H](O)[C@H](O[C@@H]5O[C@H](CO)[C@@H](O)[C@H](O)[C@H]5O)[C@H]4O[C@@H]4O[C@H](CO)[C@@H](O)[C@H](O)[C@H]4O)[C@@H]2CC[C@]1(O[C@@H]1O[C@H](CO)[C@@H](O)[C@H](O[C@@H]2O[C@H](CO)[C@@H](O)[C@H](O)[C@H]2O)[C@H]1OC1O[C@H](CO)[C@@H](O)[C@H](O)[C@H]1O)C3` (stereo partly drawn) [compound 321, Rebaudioside M], the “Acceptable daily intake (ADI)” value ([5]; bw: body weight) is given as 4 mg/kg bw/day.

For Isoquercitrin [compound 304], the “Acceptable daily intake (ADI)” value ([5]; bw: body weight) is listed as 3.3 mg/kg bw/day.

In the case of Myricitrin [compound 306], the “Acceptable daily intake (ADI)” value ([5]; bw: body weight) is listed as 14 mg/kg bw/day.

For “Neohesperidin dihydrochalcone [compound 310]”, the “Acceptable daily intake (ADI)” value ([5]; bw: body weight) is listed as 3-5 mg/kg bw/day.
